Laboratory results as given in ChEMBL document CHEMBL1221175, “Purmorphamine activates the Hedgehog pathway by targeting Smoothened” (Nat Chem Biol, 2006).
Values belong to the compound of their own block, whether it stands above or below them. Calls of active or inactive are those of the source. The rule behind the calls is not given here.

Legend:
[1] = molecular target: Sonic hedgehog protein (Mus musculus) (UniProt Q62226); experiment: Activation of Shh in ptch1 gene-deficient MEF assessed as beta-galactosidase activity after 30 hrs by chemiluminescence assay in presence of 100 nM 3-keto-N-aminoethyl-N'-aminocaproyldihydrocinnamoyl cyclopamine
[2] = molecular target: Sonic hedgehog protein (Mus musculus) (UniProt Q62226); experiment: Activation of Shh in mouse Shh Light2 cells assessed as […] after 30 hrs by luciferase reporter gene assay in presence of 100 nM 3-keto-N-aminoethyl-N'-aminocaproyldihydrocinnamoyl cyclopamine; type: functional, cell-based; settings: Shh Light II
[3] = molecular target: Sonic hedgehog protein (Mus musculus) (UniProt Q62226); experiment: Activation of Shh in smo gene-deficient MEF at 0.5 uM after 30 hrs by luciferase reporter assay
[4] = molecular target: Sonic hedgehog protein (Mus musculus) (UniProt Q62226); experiment: Activation of Shh in smo-expressing MEF at 0.5 uM after 30 hrs by luciferase reporter assay
Protein smoothened [5] = molecular target: T1, Protein smoothened (Homo sapiens, UniProt Q99835); experiment: Inhibition of BODIPY-cyclopamine binding to Smo expressed in HEK293T cells after 1 hr by fluorescence microscopy
T1 sequence (Q99835 whole entry): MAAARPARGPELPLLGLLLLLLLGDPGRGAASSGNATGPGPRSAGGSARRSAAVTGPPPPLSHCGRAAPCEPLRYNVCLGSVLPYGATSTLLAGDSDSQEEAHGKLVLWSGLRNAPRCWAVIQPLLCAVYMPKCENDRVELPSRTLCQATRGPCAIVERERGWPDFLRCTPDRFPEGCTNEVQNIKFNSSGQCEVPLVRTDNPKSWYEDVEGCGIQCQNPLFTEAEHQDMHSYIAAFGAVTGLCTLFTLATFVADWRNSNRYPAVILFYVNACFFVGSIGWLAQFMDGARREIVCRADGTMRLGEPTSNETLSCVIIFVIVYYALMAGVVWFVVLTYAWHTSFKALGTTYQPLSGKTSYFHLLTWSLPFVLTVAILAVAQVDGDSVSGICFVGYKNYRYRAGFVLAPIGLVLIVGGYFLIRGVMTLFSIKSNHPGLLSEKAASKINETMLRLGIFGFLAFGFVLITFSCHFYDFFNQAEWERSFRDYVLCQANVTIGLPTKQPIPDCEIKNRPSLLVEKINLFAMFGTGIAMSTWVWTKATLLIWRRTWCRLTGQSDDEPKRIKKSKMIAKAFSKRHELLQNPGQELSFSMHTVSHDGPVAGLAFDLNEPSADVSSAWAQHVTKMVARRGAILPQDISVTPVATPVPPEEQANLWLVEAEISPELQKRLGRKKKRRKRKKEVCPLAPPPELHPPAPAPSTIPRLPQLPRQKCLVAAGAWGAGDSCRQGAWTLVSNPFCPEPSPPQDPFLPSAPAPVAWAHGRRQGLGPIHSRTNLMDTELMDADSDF

Protein smoothened [6] = molecular target: T1, Protein smoothened; settings: HEK-293T; 5 uM
Description: Inhibition of BODIPY-cyclopamine binding to Smo N-terminal cysteine domain expressed in HEK293T cells at 5 uM after 4 hrs by fluorescence microscopy

Protein smoothened [7] = molecular target: T1, Protein smoothened; settings: HEK-293T; 5 uM; remark: listed apart in the source
Description: Inhibition of BODIPY-cyclopamine binding to Smo C-terminal cytoplasmic domain expressed in HEK293T cells at 5 uM after 4 hrs by fluorescence microscopy

[8] = molecular target: Sonic hedgehog protein (Mus musculus) (UniProt Q62226); experiment: Activation of Shh in mouse Shh Light2 cells assessed as […] at 1 uM after 30 hrs by luciferase reporter gene assay in presence of 1000 to 10000 nM 3-keto-N-aminoethyl-N'-aminocaproyldihydrocinnamoyl cyclopamine; type: functional, cell-based; settings: Shh Light II
[9] = molecular target: Sonic hedgehog protein (Mus musculus) (UniProt Q62226); experiment: Activation of Shh in mouse Shh Light2 cells assessed as […] at 10 uM after 30 hrs by luciferase reporter gene assay in presence of 1000 to 10000 nM 3-keto-N-aminoethyl-N'-aminocaproyldihydrocinnamoyl cyclopamine; type: functional, cell-based; settings: Shh Light II

Activity [1]: Active
SMILES: CN[C@H]1CC[C@H](N(Cc2cccc(-c3ccncc3)c2)C(=O)c2sc3ccccc3c2Cl)CC1

SMILES: CC1=C2C[C@H]3[C@@H](CC=C4C[C@@H](O)CC[C@@]43C)[C@@H]2CC[C@]12O[C@@H]1C[C@H](C)CN[C@H]1[C@H]2C
Activity [1]: Active

Activity [1]: Active | Activity [2]: Active | Activity [3]: inactive | Activity [4]: Active | IC50 (Protein smoothened [5]): 1500 nM | inhibition (Protein smoothened [6]): Active | inhibition (Protein smoothened [7]): Active
SMILES: c1ccc2c(Oc3nc(Nc4ccc(N5CCOCC5)cc4)c4ncn(C5CCCCC5)c4n3)cccc2c1 [PURMORPHAMINE]

Activity [8]: Active | Activity [9]: Active
SMILES: CC1=C2C[C@H]3[C@@H](CC=C4CC(=O)CC[C@@]43C)[C@@H]2CC[C@]12O[C@@H]1C[C@H](C)CN(CCNC(=O)CCCCCNC(=O)CCc3ccccc3)[C@H]1[C@H]2C
